# Experimental data taken from the supplement of paper PMC10307832.
# Legend:
# Assay in all cases: relative viability (nuclei count vs DMSO), 5 days (fraction); higher = more cells survive
# Tozasertib + Phenformin = compound: Cc1cc(Nc2cc(N3CCN(C)CC3)nc(Sc3ccc(NC(=O)C4CC4)cc3)n2)n[nH]1 [Tozasertib] + N=C(N)NC(=N)NCCc1ccccc1 [Phenformin] (partner 250 µM)
# Procedure, shortened: (§1)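 Five library-drug doses in √10 steps were combined with a fixed anchor-drug dose, or a single drug was given alone, by pin tool to lung cancer cell lines in 1536-well plates the day after seeding. Nuclei were stained and counted after 5 days. Relative viability is the nuclei count in treated wells over that in vehicle wells, taken as the median of duplicate plates.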
# Tozasertib + Pemetrexed = compound: Cc1cc(Nc2cc(N3CCN(C)CC3)nc(Sc3ccc(NC(=O)C4CC4)cc3)n2)n[nH]1 [Tozasertib] + Nc1nc2[nH]cc(CCc3ccc(C(=O)N[C@@H](CCC(=O)O)C(=O)O)cc3)c2c(=O)[nH]1 [Pemetrexed] (partner 0.2 µM)
# Procedure, shortened: as §1
# Tozasertib + Bortezomib = compound: Cc1cc(Nc2cc(N3CCN(C)CC3)nc(Sc3ccc(NC(=O)C4CC4)cc3)n2)n[nH]1 [Tozasertib] + CC(C)C[C@H](NC(=O)[C@H](Cc1ccccc1)NC(=O)c1cnccn1)B(O)O [Bortezomib] (partner 0.002 µM)
# Procedure, shortened: as §1
# Tozasertib + Navitoclax = compound: Cc1cc(Nc2cc(N3CCN(C)CC3)nc(Sc3ccc(NC(=O)C4CC4)cc3)n2)n[nH]1 [Tozasertib] + CC1(C)CCC(c2ccc(Cl)cc2)=C(CN2CCN(c3ccc(C(=O)NS(=O)(=O)c4ccc(N[C@H](CCN5CCOCC5)CSc5ccccc5)c(S(=O)(=O)C(F)(F)F)c4)cc3)CC2)C1 [Navitoclax] (partner 0.5 µM)
# Procedure, shortened: as §1
# Tozasertib + AZD7762 = compound: Cc1cc(Nc2cc(N3CCN(C)CC3)nc(Sc3ccc(NC(=O)C4CC4)cc3)n2)n[nH]1 [Tozasertib] + NC(=O)Nc1cc(-c2cccc(F)c2)sc1C(=O)N[C@H]1CCCNC1 [AZD7762] (partner 0.2 µM)
# Procedure, shortened: as §1
Cell Line,relative viability (Tozasertib + Phenformin; first compound 0.004 µM),relative viability (Tozasertib + Phenformin; first compound 0.01265 µM),relative viability (Tozasertib + Phenformin; first compound 0.04 µM),relative viability (Tozasertib + Phenformin; first compound 0.1265 µM),relative viability (Tozasertib + Pemetrexed; first compound 0.004 µM),relative viability (Tozasertib + Pemetrexed; first compound 0.01265 µM),relative viability (Tozasertib + Pemetrexed; first compound 0.04 µM),relative viability (Tozasertib + Pemetrexed; first compound 0.1265 µM),relative viability (Tozasertib + Bortezomib; first compound 0.004 µM),relative viability (Tozasertib + Bortezomib; first compound 0.01265 µM),relative viability (Tozasertib + Bortezomib; first compound 0.04 µM),relative viability (Tozasertib + Navitoclax; first compound 0.004 µM),relative viability (Tozasertib + Navitoclax; first compound 0.01265 µM),relative viability (Tozasertib + Navitoclax; first compound 0.04 µM),relative viability (Tozasertib + Navitoclax; first compound 0.1265 µM),relative viability (Tozasertib + AZD7762; first compound 0.004 µM),relative viability (Tozasertib + AZD7762; first compound 0.01265 µM),relative viability (Tozasertib + AZD7762; first compound 0.04 µM),relative viability (Tozasertib + AZD7762; first compound 0.1265 µM),relative viability (Tozasertib + Bortezomib; first compound 0.1265 µM)
201T,0.496,0.432,0.448,0.415,0.33,0.283,0.377,0.362,1.1,1.06,1.07,1.16,1.22,1.23,1.16,0.549,0.63,0.581,0.75,
A549,0.117,0.161,0.169,0.0581,,,,,,,,1.26,1.29,1.14,0.179,,,,,
A-427,0.332,0.31,0.328,0.169,1,,0.973,0.75,0.983,0.942,1.02,,0.979,0.995,0.755,0.796,0.799,0.715,0.409,0.812
ABC-1,0.218,0.202,0.261,0.172,,,,,0.278,0.282,0.3,,,,,1.01,0.789,,1.16,0.231
BEN,0.277,0.253,0.296,0.252,0.847,0.72,0.923,0.487,1.01,0.79,0.925,0.0692,0.0723,0.0504,0.0587,0.761,0.678,,0.532,0.571
CAL-12T,0.669,0.499,0.529,0.272,1.3,1.14,1.25,1.01,1.2,0.785,0.962,1.33,1.14,1.31,1.08,0.563,0.553,0.545,0.494,0.362
COR-L23,0.44,0.425,0.407,0.176,0.206,0.206,0.187,0.179,0.986,0.889,0.888,1,0.897,0.954,0.757,,,,,0.864
COR-L 105,0.501,0.46,0.483,0.275,1.05,1.14,1.23,1.15,0.879,0.815,0.943,0.787,0.644,0.932,0.542,,,,,0.291
ChaGo-K-1,0.528,0.456,0.562,0.289,0.255,0.268,0.254,0.264,1.17,0.953,1.14,1.13,0.946,1.2,0.3,0.902,0.851,0.859,0.576,0.31
